Assay results reported in patent US20050043214A1, “Antiglaucomatous agent and use thereof” (priority 2001, published 2005).

Test system: Patients with glaucoma
Assay: Intraocular pressure of glaucoma patients measured by applanation tonometry during eyedrop treatment
Assay type: in vivo, human
Settings: average of last six measurements
Method: Patients with glaucoma which had led to glaucomatous damage were treated. All the patients had previously been treated with timolol 0.5% eyedrops, and in some cases with a combination therapy of timolol 0.5% and another antiglaucomatous agent. The initial state of the intraocular pressure was measured during the previous therapy by determining the average of the last six measurements during the previous therapy. Two groups of patients were then treated according to the invention. […] They formed the group of decompensated glaucomas. Group 2 comprised patients who had normalized intraocular pressures on treatment with timolol 0.5%. They formed the group of compensated glaucomas. […] A third group formed of 11 patients was treated in the same manner with eyedrops which contained only 0.5% lactalbumin hydrolyzate fraction from example 5. The intraocular pressure was checked initially after one day, after two days and then weekly. The measurements of intraocular pressure took place at various times of day (morning, midday, late afternoon) by applanation tonometry. In total, 18 patients with an average age of 56.6 years, of whom 8 were male and 10 patients were female, were treated for 9 weeks.

CC(C)(C)NC[C@H](O)COc1nsnc1N1CCOCC1 [timolol]
average intraocular pressure by applanation before the treatment according to the invention (group 1 decompensated glaucomas, on timolol 0.5% or combination therapy with another antiglaucomatous agent, range of variation 3.6 mmHg): 26.4 mmHg | average intraocular pressure by applanation before the treatment according to the invention (group 2 compensated glaucomas, on timolol 0.5%, range of variation 1.6 mmHg): 19.2 mmHg
